Reference: PMC12655526, “Effective Oral Delivery of Teriparatide Using Organoclay—Polymethacrylate Nanocomposites for Osteoporosis Therapy” (Pharmaceutics, 2025)

Columns and labels:
[1] = system: dexamethasone-induced osteoporosis rats; experiment: Serum bone-turnover biomarkers in dexamethasone-induced osteoporosis rats; type: in vivo, rat; conditions: 8 weeks daily, oral EE/AC-Teri 16 mg/kg or sc teriparatide 0.04 mg/kg, n = 6
Protocol: The therapeutic effect of orally delivered EE/AC-Teri was examined in dexamethasone-induced osteoporosis rats under an Institutional Animal Care and Use committee (IACUC)-approved protocol (IACUC-2023-039-2). Male Sprague–Dawley rats (280–300 g) were randomly allocated to four groups (n = 6 each). The control group received a daily subcutaneous saline. In the osteoporotic model group, 0.1 mg/kg dexamethasone was administered subcutaneously each day to induce bone loss. The injectable teriparatide treatment group was given a combination of daily subcutaneous dexamethasone (0.1 mg/kg) and teriparatide (0.04 mg/kg). The final group was administered EE/AC-Teri orally (16 mg/kg of teriparatide), in combination with daily subcutaneous dexamethasone (0.1 mg/kg). After 8 week-treatment, blood was drawn for biochemical analysis. […] Serum osteocalcin (OCN), procollagen type I N-terminal propeptide (PINP), C-terminal telopeptide of type I collagen (CTx), tartrate-resistant acid phosphatase 5b (TRAP5b), and calcium were quantified with commercial ELISA kits (Thermo Fisher Scientific, Waltham, MA, USA) according to the manufacturer’s instructions. […] Quantitative parameters describing trabecular bone microarchitecture were assessed using Analyze software (ver 12.0; AnalyzeDirect, Overland Park, KS, USA).

pepsin = target: T1, pepsin (Sus scrofa, UniProt P00791); experiment: Gastrointestinal stability in simulated gastric fluid (SGF); type: in vitro ADME; conditions: SGF pH 1.2, 5 μg/mL pepsin, 0.5 mg/mL teriparatide, 37 °C, 100 rpm; CD after release in PBS pH 7.4
T1 construct: purchased Sigma-Aldrich Co. (St Louis, MO, USA)
Protocol: (§1) The conformational integrity of teriparatide encapsulated within nanocomplexes was assessed under simulated gastrointestinal conditions using enzyme-supplemented media. Specifically, samples were incubated in simulated gastric fluid (SGF; pH 1.2, containing 5 μg/mL pepsin) or simulated intestinal fluid (SIF; pH 7.4, supplemented with 20 μg/mL trypsin). Nanoparticles corresponding to 0.5 mg/mL of teriparatide were dispersed in 1 mL of either SGF or SIF and incubated at 37 °C with stirring at 100 rpm. Digestion was quenched with 0.2 mL of 0.2 M NaOH (for SGF) or 0.1 M HCl (for SIF) at predefined times. The nanoparticles were then isolated via centrifugation, redispersed in PBS (pH 7.4), and incubated for 2 h. The conformation of teriparatide following its release from nanoparticles was analyzed by CD spectroscopy to verify structural stability.

trypsin = experiment: Gastrointestinal stability in simulated intestinal fluid (SIF); type: in vitro ADME; conditions: SIF pH 7.4, 20 μg/mL trypsin, 0.5 mg/mL teriparatide, 37 °C, 100 rpm; CD after release in PBS pH 7.4
Protocol: as §1

[2] = system: dexamethasone-induced osteoporosis rats; experiment: Micro-CT and histology of femora in dexamethasone-induced osteoporosis rats; type: in vivo, rat
Protocol: The therapeutic effect of orally delivered EE/AC-Teri was examined in dexamethasone-induced osteoporosis rats under an Institutional Animal Care and Use committee (IACUC)-approved protocol (IACUC-2023-039-2). Male Sprague–Dawley rats (280–300 g) were randomly allocated to four groups (n = 6 each). The control group received a daily subcutaneous saline. In the osteoporotic model group, 0.1 mg/kg dexamethasone was administered subcutaneously each day to induce bone loss. The injectable teriparatide treatment group was given a combination of daily subcutaneous dexamethasone (0.1 mg/kg) and teriparatide (0.04 mg/kg). The final group was administered EE/AC-Teri orally (16 mg/kg of teriparatide), in combination with daily subcutaneous dexamethasone (0.1 mg/kg). After 8 week-treatment, blood was drawn for biochemical analysis. Blood (0.6 mL) was collected once on day 57 via the jugular vein under 1.5% isoflurane anesthesia in a Tabletop Anesthesia System (Harvard Apparatus, Cambridge, MA, USA). Serum osteocalcin (OCN), procollagen type I N-terminal propeptide (PINP), C-terminal telopeptide of type I collagen (CTx), tartrate-resistant acid phosphatase 5b (TRAP5b), and calcium were quantified with commercial ELISA kits (Thermo Fisher Scientific, Waltham, MA, USA) according to the manufacturer’s instructions. At study completion, animals were euthanized using a 30%/min displacement of chamber air with compressed CO2. Both femora were excised and fixed in 4% neutral-buffered formalin for 48 h. Fixed bones were processed for histological and structural analysis. Some samples were paraffin-embedded and sectioned for histological examination using hematoxylin and eosin (H&E) staining. The remaining specimens were subjected to structural evaluation via micro-computed tomography (micro-CT; the Korea Basic Science Institute). Images were acquired using a 90 kV/80 μA X-ray source over a 4 min acquisition time, with the scan field confined to 10 mm. Reconstructed images were generated at an isotropic voxel resolution of 20 μm. Quantitative parameters describing trabecular bone microarchitecture were assessed using Analyze software (ver 12.0; AnalyzeDirect, Overland Park, KS, USA).

[3] = 8 weeks daily, oral EE/AC-Teri 16 mg/kg or sc teriparatide 0.04 mg/kg, dexamethasone rats, femur

T1 sequence (P00791 60-385): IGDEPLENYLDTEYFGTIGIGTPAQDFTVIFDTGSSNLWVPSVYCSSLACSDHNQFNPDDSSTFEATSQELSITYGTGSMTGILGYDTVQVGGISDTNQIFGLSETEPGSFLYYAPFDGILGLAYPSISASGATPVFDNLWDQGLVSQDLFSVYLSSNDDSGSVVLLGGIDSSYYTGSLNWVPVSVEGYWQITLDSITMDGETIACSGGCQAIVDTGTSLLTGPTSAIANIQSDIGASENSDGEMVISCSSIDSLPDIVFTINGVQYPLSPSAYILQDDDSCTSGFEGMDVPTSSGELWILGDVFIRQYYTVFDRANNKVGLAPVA

Q: What does the source list for `CC[C@H](C)[C@H](NC(=O)[C@H](CCC(=O)O)NC(=O)[C@H](CO)NC(=O)[C@@H](NC(=O)[C@@H](N)CO)C(C)C)C(=O)N[C@@H](CCC(N)=O)C(=O)N[C@@H](CC(C)C)C(=O)N[C@@H](CCSC)C(=O)N[C@@H](Cc1cnc[nH]1)C(=O)N[C@@H](CC(N)=O)C(=O)N[C@@H](CC(C)C)C(=O)NCC(=O)N[C@@H](CCCCN)C(=O)N[C@@H](Cc1cnc[nH]1)C(=O)N[C@@H](CC(C)C)C(=O)N[C@@H](CC(N)=O)C(=O)N[C@@H](CO)C(=O)N[C@@H](CCSC)C(=O)N[C@@H](CCC(=O)O)C(=O)N[C@@H](CCCN=C(N)N)C(=O)N[C@H](C(=O)N[C@@H](CCC(=O)O)C(=O)N[C@@H](Cc1c[nH]c2ccccc12)C(=O)N[C@@H](CC(C)C)C(=O)N[C@@H](CCCN=C(N)N)C(=O)N[C@@H](CCCCN)C(=O)N[C@@H](CCCCN)C(=O)N[C@@H](CC(C)C)C(=O)N[C@@H](CCC(N)=O)C(=O)N[C@@H](CC(=O)O)C(=O)N[C@H](C(=O)N[C@@H](Cc1cnc[nH]1)C(=O)N[C@@H](CC(N)=O)C(=O)N[C@@H](Cc1ccccc1)C(=O)O)C(C)C)C(C)C` [teriparatide]?
A: Serum calcium / hypercalcemia [1]: did not produce sustained hypercalcemia; Conformational integrity of teriparatide in SGF (CD spectra) (pepsin): pronounced conformational alterations in both SGF and SIF; Conformational integrity of teriparatide in SIF (CD spectra) (trypsin): pronounced conformational alterations in both SGF and SIF; Trabecular architecture by histology (H&E) [2, 3]: partially restored architecture; Trabecular architecture by micro-CT imaging [2, 3]: mitigated these lesions, preserving a denser, interconnected trabecular network; Bone mineral density (BMD) ([2]; micro-CT, 8 weeks, oral EE/AC-Teri 16 mg/kg or sc teriparatide 0.04 mg/kg, versus dexamethasone control, n = 6): significantly restored; Bone volume fraction (BV/TV) ([2]; micro-CT, 8 weeks, sc teriparatide 0.04 mg/kg, versus dexamethasone control, n = 6): significantly restored
